These are literature values, as cited in patent US8728553B2, “Vitamin containing product” (Nattopharma ASA, priority 2000, dated 2014).

For the series the following is noted: intake of 5 g butter to which 800 μg MK-4 had been added (equivalent to 16 mg MK-4 per 100 g butter).

In the case of `CC(C)=CCC/C(C)=C/CC/C(C)=C/CC/C(C)=C/CC1=C(C)C(=O)c2ccccc2C1=O` [MK-4, menaquinone (MK-4)], the “MK-4 levels in blood serum” value is “increased”.
